Test results from ChEMBL document CHEMBL5143606, “Selective Wee1 degradation by PROTAC degraders recruiting VHL and CRBN E3 ubiquitin ligases” (Bioorg Med Chem Lett, 2022).
Activity calls are given as the source filed them. The calls are words filed in the database; no cut-off is given here.

How the values were obtained:
[1] = target: T1, Protein cereblon/Wee1-like protein kinase (Homo sapiens) (UniProt P30291+Q96SW2); experiment: PROTAC activity at CRBN/Wee1 in human HeLa S3 cells assessed as induction of Wee1 degradation by measuring reduction in phosphorylation of CDK1 at Tyr15 residue at 1 uM measured after 24 hrs by Western blot analysis relative to control; format: cell-based; set-up: scale not given: the % may be the effect or the level left
[2] = target: T1, Protein cereblon/Wee1-like protein kinase (Homo sapiens); experiment: PROTAC activity at CRBN/Wee1 in human HeLa S3 cells assessed as induction of Wee1 degradation at 1 uM measured after 24 hrs by Western blot analysis relative to control; format: cell-based
[3] = target: T1, Protein cereblon/Wee1-like protein kinase (Homo sapiens); experiment: PROTAC activity at CRBN/Wee1 in human HeLa S3 cells assessed as induction of Wee1 degradation at 30 to 10000 nM measured after 4 hrs by Western blot analysis; format: cell-based; settings: dose 30-10000 nM
[4] = target: T2, von Hippel-Lindau disease tumor suppressor/Wee1-like protein kinase (Homo sapiens) (UniProt P30291+P40337); experiment: PROTAC activity at VHL/Wee1 in human HeLa S3 cells assessed as induction of Wee1 degradation by measuring reduction in phosphorylation of CDK1 at Tyr15 residue at higher concentration measured after 4 hrs by Western blot analysis; format: cell-based
[5] = target: T2, von Hippel-Lindau disease tumor suppressor/Wee1-like protein kinase (Homo sapiens); experiment: PROTAC activity at VHL/Wee1 in human HeLa S3 cells assessed as induction of Wee1 degradation by measuring reduction in phosphorylation of CDK1 at Tyr15 residue at 1 uM measured after 24 hrs by Western blot analysis relative to control; format: cell-based; set-up: scale not given: the % may be the effect or the level left
[6] = target: T2, von Hippel-Lindau disease tumor suppressor/Wee1-like protein kinase (Homo sapiens); experiment: PROTAC activity at VHL/Wee1 in human HeLa S3 cells assessed as induction of Wee1 degradation at 1 uM measured after 24 hrs by Western blot analysis relative to control; format: cell-based
PC-3 = experiment: Antiproliferative activity against human PC-3 cells assessed as inhibition of cell growth measured after 72 hrs by MTS assay; format: functional, cell-based; settings: PC-3, 72 h
BT-549 = experiment: Antiproliferative activity against human BT-549 cells assessed as inhibition of cell growth measured after 72 hrs by MTS assay; format: functional, cell-based; settings: BT-549, 72 h
MCF7 = experiment: Antiproliferative activity against human MCF7 cells assessed as inhibition of cell growth measured after 72 hrs by MTS assay; format: functional, cell-based; settings: MCF7, 72 h
LNCaP = experiment: Antiproliferative activity against human LNCaP cells assessed as inhibition of cell growth measured after 72 hrs by MTS assay; format: functional, cell-based

Compound | Activity [1] [%] | Activity [2] [%] | Activity [5] [%] | Activity [6] [%] | further results
C=CCn1c(=O)c2cnc(Nc3ccc(N4CCN(CCCC(=O)NCCCC(=O)NCCNc5cccc6c5C(=O)N(C5CCC(=O)NC5=O)C6=O)CC4)cc3)nc2n1-c1cccc(C(C)(C)O)n1 (configuration not stated) | 60 | 47 |  |  | 
C=CCn1c(=O)c2cnc(Nc3ccc(N4CCN(CCCC(=O)NCCOCCOCCOCCOCCNc5cccc6c5C(=O)N(C5CCC(=O)NC5=O)C6=O)CC4)cc3)nc2n1-c1cccc(C(C)(C)O)n1 (configuration not stated) | 65 | 45 |  |  | 
C=CCn1c(=O)c2cnc(Nc3ccc(N4CCN(CCCC(=O)NCCCCCCCCCCC(=O)NCCNc5cccc6c5C(=O)N(C5CCC(=O)NC5=O)C6=O)CC4)cc3)nc2n1-c1cccc(C(C)(C)O)n1 (configuration not stated) | 41 | 41 |  |  | 
C=CCn1c(=O)c2cnc(Nc3ccc(N4CCN(CCCC(=O)NCCNc5cccc6c5C(=O)N(C5CCC(=O)NC5=O)C6=O)CC4)cc3)nc2n1-c1cccc(C(C)(C)O)n1 (configuration not stated) | 38 | 21 |  |  | Activity [3]: Active
C=CCn1c(=O)c2cnc(Nc3ccc(N4CCN(CCCC(=O)NCCOCCOCCOCCOCCOCCNc5cccc6c5C(=O)N(C5CCC(=O)NC5=O)C6=O)CC4)cc3)nc2n1-c1cccc(C(C)(C)O)n1 (configuration not stated) | 78 | 51 |  |  | 
C=CCn1c(=O)c2cnc(Nc3ccc(N4CCN(CCCC(=O)NCCCCCCCC(=O)N[C@H](C(=O)N5C[C@H](O)C[C@H]5C(=O)NCc5ccc(-c6scnc6C)cc5)C(C)(C)C)CC4)cc3)nc2n1-c1cccc(C(C)(C)O)n1 |  |  | 53 | 68 | Activity [4]: Active
C=CCn1c(=O)c2cnc(Nc3ccc(N4CCN(C)CC4)cc3)nc2n1-c1cccc(C(C)(C)O)n1 [ADAVOSERTIB] |  |  |  |  | IC50 (PC-3): 8000 nM; IC50 (BT-549): 490 nM; IC50 (MCF7): 1100 nM; IC50 (LNCaP): 500 nM
C=CCn1c(=O)c2cnc(Nc3ccc(N4CCN(CCCC(=O)NCCCCCCCC(=O)NCCNc5cccc6c5C(=O)N(C5CCC(=O)NC5=O)C6=O)CC4)cc3)nc2n1-c1cccc(C(C)(C)O)n1 (configuration not stated) | 88 | 83 |  |  | 
C=CCn1c(=O)c2cnc(Nc3ccc(N4CCN(CCCC(=O)NCCCCCC(=O)NCCNc5cccc6c5C(=O)N(C5CCC(=O)NC5=O)C6=O)CC4)cc3)nc2n1-c1cccc(C(C)(C)O)n1 (configuration not stated) | 54 | 75 |  |  | 
C=CCn1c(=O)c2cnc(Nc3ccc(N4CCN(CCCC(=O)NCCOCCOCCOCC(=O)NCCNc5cccc6c5C(=O)N(C5CCC(=O)NC5=O)C6=O)CC4)cc3)nc2n1-c1cccc(C(C)(C)O)n1 (configuration not stated) | 84 | 96 |  |  | 
C=CCn1c(=O)c2cnc(Nc3ccc(N4CCN(CCCC(=O)NCCOCCOCCOCC(=O)N[C@H](C(=O)N5C[C@H](O)C[C@H]5C(=O)NCc5ccc(-c6scnc6C)cc5)C(C)(C)C)CC4)cc3)nc2n1-c1cccc(C(C)(C)O)n1 |  |  | 72 | 94 | 
C=CCn1c(=O)c2cnc(Nc3ccc(N4CCN(CCCC(=O)NCCOCCOCCOCCNc5cccc6c5C(=O)N(C5CCC(=O)NC5=O)C6=O)CC4)cc3)nc2n1-c1cccc(C(C)(C)O)n1 (configuration not stated) | 66 | 59 |  |  | 
C=CCn1c(=O)c2cnc(Nc3ccc(N4CCN(CCCC(=O)NCCCCCC(=O)N[C@H](C(=O)N5C[C@H](O)C[C@H]5C(=O)NCc5ccc(-c6scnc6C)cc5)C(C)(C)C)CC4)cc3)nc2n1-c1cccc(C(C)(C)O)n1 |  |  | 64 | 71 | Activity [4]: Active
C=CCn1c(=O)c2cnc(Nc3ccc(N4CCN(CCCC(=O)NCCCC(=O)N[C@H](C(=O)N5C[C@H](O)C[C@H]5C(=O)NCc5ccc(-c6scnc6C)cc5)C(C)(C)C)CC4)cc3)nc2n1-c1cccc(C(C)(C)O)n1 |  |  | 55 | 68 | Activity [4]: Active
C=CCn1c(=O)c2cnc(Nc3ccc(N4CCN(CCCC(=O)NCCCCCCCCCCC(=O)N[C@H](C(=O)N5C[C@H](O)C[C@H]5C(=O)NCc5ccc(-c6scnc6C)cc5)C(C)(C)C)CC4)cc3)nc2n1-c1cccc(C(C)(C)O)n1 |  |  | 47 | 50 | Activity [4]: Active
